According to patent US4431807A, “4-Methyl-5-(unsubstituted and substituted phenoxy)-6-methoxy-8-(aminoalkylamino)quinolines” (priority 1981, dated 1984):
“And” between values parts separate entries of the source, which are not always exact repeats. Equal entries are not always repeated. Where two headings read alike, the source gives them in different places.

Tests used:
Plasmodium berghei [1] = conditions: cited from earlier work
Plasmodium cynomolgi [2] = conditions: cited from earlier work
Plasmodium cynomolgi [3] = assay: Radical curative (tissue schizonticidal) test, SEATO, P. cynomolgi, rhesus monkey; type: in vivo, Plasmodium cynomolgi (strain B) in Indian rhesus monkeys; conditions: for Molar Primaquine Index CD 100: primaquine CD100 dose / drug CD100 dose, in moles; for Radical curative activity relative to primaquine: in words
Procedure: Radical Curative Test in Rhesus Monkeys, SEATO Medical Research Laboratory, Bangkok, John Brown/Richard Andre
This test is designed to evaluate the tissue schizonticidal (radical curative) activity of test compounds. Well-conditioned Indian rhesus monkeys of either sex weighing 2-4 Kg are utilized. Plasmodium cynomolgi (strain B) sporozoites are prepared by grinding heavily infected Anopheles dirus salivary glands in 1:1 monkey serum-saline vehicle.
Monkeys are infected by I.V. injection of 10^6 freshly isolated P. cynomolgi sporozoites on day 0. A rapidly rising parasitemia develops after a 7-9 day prepatent period, and administration of the test drug is initiated when the rising parasite count exceeds 5000 per mm^3 (typically day 10-12). Test drugs are administered orally (by nasogastric intubation) once daily for 7 consecutive days in aqueous solution or, if insoluble, in suspension in 0.3% methylcellulose solution. Chloroquine diphosphate (3.1 mg/kg base/kg orally per day) is always administered concurrently with the test drug for 7 days to eliminate blood schizonts. Thus any tissue schizonticidal activity of the test drug will always be apparent even if it lacks blood schizonticidal activity.
A vehicle control monkey and a positive drug control (primaquine) monkey are included in each group of inoculated monkeys.
The effect of the test drug is determined by counting blood parasites. Parasite counts are made daily through day 20, and every two days thereafter. Initially a clearance of blood parasites is observed due to the blood schizonticidal action of chloroquine. […] If there is no relapse within 20 days of the initial clearance of parasitemia, the monkey is splenectomized and its parasitemia followed for an additional 30 days. If there is no relapse within this period, the experiment is terminated and the monkey is considered "cured".
Primaquine diphosphate cures over 90% of monkeys in this test system when administered at a dose of 1.3 mg/kg of salt per day for 7 days ([…]) in combination with chloroquine.
(§1) The antimalarial activity data acquired by the two test procedures described above are listed in Tables 2 and 3 for the compounds of this invention. In Table 4, the most promising compound of the series, compound 1, is compared directly with primaquine together with some additional test data for compound 1 compared to primaquine. In all the work reported herein primaquine is used in the form of the diphosphate salt. The test data are expressed in the form of the number of cures at a given dose level. Extension of life (mean survival time) relative to the controls is noted in the Rane mouse test; if the mean survival time is extended seven or more days, the compound is considered to be active.
The Molar Primaquine Index is useful in the radical curative test (Table II) as a gauge of the efficacy of a candidate drug relative to primaquine.

Plasmodium berghei [4] = assay: Blood schizonticidal (suppressive) test, Rane mouse test, P. berghei; type: in vivo, Plasmodium berghei KBG 173 in ICR/HA Swiss mice; conditions: for Cures (60 days survival) / Suppressive activity (active/inactive) / Toxic: five mice; for Cures (60 days survival) / Extension of survival relative to controls / Suppressive activity (active/inactive) / Toxic: Table III
Excerpt: Blood Schizonticidal Test (Mouse), University of Miami, Rane (Suppressive)
This system is based on comparisons of responses to test compounds by Plasmodium berghei KBG 173 malaria in mice as expressed in mean survival times and the mean survival times of untreated controls. Thus, compounds noted as active produce increases in the survival times of the treated animals that are significant when compared with the survival times of untreated controls. Since an established disease is less sensitive to treatment than a disease in the early stages of development, treatment is withheld until the parasitemia is relatively high in order to insure a more reliable assay of activity and the selection of appropriate compounds for intensive preclinical studies.
Utilizing young ICR/HA Swiss mice and a standard inoculum of Plasmodium berghei KBG 173, it is possible to produce a uniform disease fatal to 100% of untreated animals within 6 to 8 days with a mean survival time of 6.2 days. Test animals weigh from 18 to 22 grams but weight variations in any given experimental or control group are confined to 2-3 grams. All animals in any given test are approximately of the same age. Animals on test are housed in metal-topped plastic cages, given a standard laboratory diet and water ad libitum.
Test animals receive an intraperitoneal injection of 0.5 ml of 1:100 dilution of heparinized heart's blood with a minimum of 90% parasitized cells (4×10^7 cells), drawn from donor mice infected one week earlier with Plasmodium berghei. The donor stran is maintained by weekly passages in separate groups of mice inoculated with a 0.5 ml of 1:500 dilution of heparinized heart's blood.
Test compounds are administered after dissolution or suspension in peanut oil. A single dose is given subcutaneously 72 hours after the mice are infected with Plasmodium berghei. At this time a 10-15 percent parasitemia has developed; the disease is well established but has not produced sufficient debility to alter the response of the host to toxic effects of the drug on test. Since treatment is withheld for three days to permit the infection to become well established and death occurs in untreated controls within 6-8 days, it is believed that this system presents a candidate compound with the maximum challenge. In order to check factors such as changes in the infectivity of Plasmodium berghei or in the susceptibility of the host or to detect technical errors, a group of infected animals treated with pyrimethamine at dose levels producing definite increases in survival time is included as a positive control in every experiment.
In each experiment test compounds are administered in graded doses. […] However, if an active drug is toxic for the host, its toxicity may become a limiting factor; continued increases in dose levels also increase the toxic effects and may result in the diminution of survival times. Deaths prior to the sixth day, when untreated controls begin to die, are regarded as non-parasitic and become the basis for toxicity evaluations. Treated animals are kept under observation for 60 days. Survivors at the end of this period of time are considered as cured.
An increase of 100% in mean survival time is considered the minimum effective response for a candidate compound. In calculating mean survival time, toxic deaths and 60 day survivors are not included.
as §1, with “Extension of life (mean survival time) relative to the controls is noted in the Rane mouse test; if the mean survival time is extended seven or more days, the compound is considered to be active.” left out

SMILES	Molar Primaquine Index CD 100 (Plasmodium cynomolgi [3])	Cures (60 days survival) (Plasmodium berghei [4]; 20 mg/kg × 1, s.c.)	Cures (60 days survival) (Plasmodium berghei [4]; 40 mg/kg × 1, s.c.)	Cures (60 days survival) (Plasmodium berghei [4]; 10 mg/kg × 1, s.c.)	Cures (60 days survival) (Plasmodium berghei [4]; 80 mg/kg × 1, s.c.)	Cures (60 days survival) (Plasmodium berghei [4]; 160 mg/kg × 1, s.c.)	Cures (60 days survival) (Plasmodium berghei [4]; 320 mg/kg × 1, s.c.)	Toxic (Plasmodium berghei [4]; 640 mg/kg × 1, s.c.)	Cures (60 days survival) (Plasmodium berghei [4]; 640 mg/kg × 1, s.c.)	further results
COc1cc(NC(C)CCCN)c2nccc(C)c2c1 (centres unmarked) [4-Methylprimaquine, 4-methylprimaquine]										Δ MST (Plasmodium berghei [1]; 160 mg/kg, 5 mice, Table I): 9 days; Δ MST (Plasmodium berghei [1]; 320 mg/kg, 5 mice, Table I): 10 days; Cures (Plasmodium berghei [1]; 640 mg/kg, 5 mice, Table I): 3C; Toxic deaths (Plasmodium berghei [1]; 640 mg/kg, 5 mice, Table I): 1T; Only curative (toxic) dose in suppressive test (Plasmodium berghei [1]; curative only at the toxic dose): 640 mg/kg; Suppressive activity (Plasmodium berghei [1]; non-toxic dose levels, prior art comparison): very weak activity; Radical curative activity (Plasmodium cynomolgi [2]; 0.316 mg/kg, prior art comparison): inactive; % cures (radical curative) (Plasmodium cynomolgi [2]; 1.0 mg/kg): 100%; Radical curative activity relative to primaquine (Plasmodium cynomolgi [2]; prior art compounds): comparable to primaquine and essentially equivalent in efficacy
COc1cc(NCCCC(C)N)c2nccc(C)c2c1Oc1cccc(C(F)(F)F)c1 (centres unmarked) [Compound 2, 8-((4-Amino-1-pentyl)amino)-6-methoxy-4-methyl-5-(3-trifluoromethylphenoxy)-quinoline Hemisuccinate]	1.3	4C	5C							
COc1cc(NCCCCC(C)N)c2nccc(C)c2c1Oc1cccc(C(F)(F)F)c1 (centres unmarked) [Compound 3, 8-((5-Amino-1-hexyl)amino)-6-methoxy-4-methyl-5-(3-trifluoromethylphenoxy)quinoline Hemisuccinate Hydrate]	1.3	5C	5C	3C	4C	4C				Extension of survival relative to controls (Plasmodium berghei [4]; 5 mg/kg × 1, s.c.): 13 days; Suppressive activity (active/inactive) (Plasmodium berghei [4]; 5 mg/kg × 1, s.c.): A (Active, 7 Days or more estension of survival relative to controls.)
CCC(CCCN)Nc1cc(OC)c(Oc2cccc(C(F)(F)F)c2)c2c(C)ccnc12.O=C(O)CCC(=O)O (centres unmarked) [Compound 4, 8-((4-Amino-1-ethylbutyl)amino)-6-methoxy-4-methyl-5-(3-trifluoromethylphenoxy)-quinoline Succinate]	1.3	5C	5C	3C	5C	5C	5C			Cures (60 days survival) (Plasmodium berghei [4]; 640 mg/kg × 1, s.c., Succinate): 2C and 3C
COc1cc(NC(C)CCCNC(C)C)c2nccc(C)c2c1Oc1cccc(C(F)(F)F)c1.O=C(O)CCC(=O)O (centres unmarked) [Compound 5, 8-((4-Isopropylamino-1-methylbutyl)amino)-6-methoxy-4-methyl-5-(3-trifluoromethylphenoxy)quinoline Succinate]	1.3							4T		Suppressive activity (Plasmodium berghei [4]; in words, Table 3): totally ineffective
COc1ccc(Oc2c(OC)cc(NC(C)CCCN)c3nccc(C)c23)cc1.O=P(O)(O)O (centres unmarked) [Compound 6, 8-((4-Amino-1-methylbutyl)amino)-6-methoxy-5-(4-methoxyphenoxy)-4-methylquinoline Phosphate]	4.6	1C	5C		5C	5C	5C	3T	2C	Radical curative activity relative to primaquine (Plasmodium cynomolgi [3]): markedly superior to primaquine; Extension of survival relative to controls (Plasmodium berghei [4]; 10 mg/kg × 1, s.c.): 7 days; Suppressive activity (active/inactive) (Plasmodium berghei [4]; 10 mg/kg × 1, s.c.): A (Active, 7 Days or more estension of survival relative to controls.)
COc1cc(NC(C)CCCN)c2nccc(C)c2c1Oc1ccc(Cl)c(Cl)c1.O=P(O)(O)O (centres unmarked) [Compound 7, 8-((4-Amino-1-methylbutyl)amino)-5-(3,4-dichlorophenoxy)-6-methoxy-4-methylquinoline Phosphate]	1.3	5C	5C	5C	5C	5C	5C		5C	Cures (60 days survival) (Plasmodium berghei [4]; 5 mg/kg × 1, s.c.): 4C
COc1cc(NC(C)CCCN)c2nccc(C)c2c1Oc1ccc(Cl)cc1Cl (centres unmarked) [Compound 8, 8-((4-Amino-1-methylbutyl)amino))-5-(2,4-dichlorophenoxy)-6-methoxy-4-methylquinoline Phosphate]	1.3	5C	5C	1C	5C	5C	4C	2T	3C	Toxic (Plasmodium berghei [4]; 320 mg/kg × 1, s.c.): 1T
COc1cc(NC(C)CCCN)c2nccc(C)c2c1Oc1ccc(F)cc1.O=P(O)(O)O (centres unmarked) [Compound 9, 8-((4-Amino-1-methylbutyl)amino)-5-(4-fluorophenoxy)-6-methoxy-4-methylquinoline Phosphate]	4.5	4C	5C	3C	5C	5C	4C	2T	3C	Radical curative activity relative to primaquine (Plasmodium cynomolgi [3]): markedly superior to primaquine; Extension of survival relative to controls (Plasmodium berghei [4]; 5 mg/kg × 1, s.c.): 7 days; Suppressive activity (active/inactive) (Plasmodium berghei [4]; 5 mg/kg × 1, s.c.): A (Active, 7 Days or more estension of survival relative to controls.); Toxic (Plasmodium berghei [4]; 320 mg/kg × 1, s.c.): 1T; minimal effective dose (Plasmodium berghei [4]; Plasmodium berghei, sc, single dose, read-out: Curative dose, suppressive test): 10 mg/kg; Toxicity in suppressive test (Plasmodium berghei [4]; relative to compound 1): somewhat more toxic
OC(c1cc(C(F)(F)F)nc2c(C(F)(F)F)cccc12)C1CCCCN1 (centres unmarked) [mefloquine]										Curative dose, Rane Test (Plasmodium berghei [1]; newer clinical suppressive drug): 20 mg/kg
